In ChEMBL document CHEMBL1143518, “Binding of isotryptamines and indenes at h5-HT6 serotonin receptors” (Bioorg Med Chem Lett, 2005):

What follows are compounds tested against 5-hydroxytryptamine receptor 6 (Homo sapiens, UniProt P50406) (assay: Binding affinity against human 5-Hydroxytryptamine 6 receptor expressed in HEK293 cells using [3H]LSD done for 90 minutes at pH 7.4 at room temperature).
Chain of 5-hydroxytryptamine receptor 6 (P50406 whole entry): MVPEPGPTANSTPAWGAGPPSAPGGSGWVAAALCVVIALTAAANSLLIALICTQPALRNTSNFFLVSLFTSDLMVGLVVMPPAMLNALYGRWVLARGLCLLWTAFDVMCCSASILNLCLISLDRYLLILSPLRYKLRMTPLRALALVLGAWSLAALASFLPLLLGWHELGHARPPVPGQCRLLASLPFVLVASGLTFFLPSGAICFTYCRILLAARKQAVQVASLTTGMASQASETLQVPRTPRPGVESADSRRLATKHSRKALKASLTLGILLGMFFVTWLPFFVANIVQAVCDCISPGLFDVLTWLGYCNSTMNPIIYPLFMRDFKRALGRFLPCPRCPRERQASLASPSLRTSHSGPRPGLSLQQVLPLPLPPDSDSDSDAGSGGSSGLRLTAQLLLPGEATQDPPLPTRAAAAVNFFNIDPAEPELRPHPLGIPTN
Assay type: cell-based
For `Nc1ccc(SC2CCc3ccccc32)cc1` (configuration not stated), the Ki was 4200 nM. For `Nc1ccc(S(=O)(=O)C2CCc3ccccc32)cc1` (configuration not stated), the Ki was 740 nM. With `Nc1ccc(/C=C2\C=Cc3ccccc32)cc1` the Ki was 640 nM. `Nc1ccc(CC2C=Cc3ccccc32)cc1` (configuration not stated) was tested, and the Ki was 4470 nM. `CN(C)CCn1cc(Cc2ccc(N)cc2)c2ccccc21` was tested, and the Ki was 50 nM. `CNCCC1=CC(Cc2ccccc2)c2ccccc21` (configuration not stated) showed a Ki of 3 nM. With `CNCCC1=CC(CCc2ccccc2)c2ccccc21` (configuration not stated) the Ki was 100 nM. For `Nc1ccc(CC2CCc3ccccc32)cc1` (configuration not stated), the Ki was 6100 nM. With `Nc1ccc(Cc2c[nH]c3ccccc23)cc1` the Ki was 2530 nM. For `Nc1ccc(CC2=CCc3ccccc32)cc1`, the Ki was 11800 nM. `CN(C)CCc1cn(CCc2ccccc2)c2ccccc12` was tested, and the Ki was 12 nM. `CN(C)CCC1=C/C(=C\c2ccccc2)c2ccccc21` was tested, and the Ki was 57 nM.
